# Measurements taken from patent US10869476B2 (priority 2015, dated 2020).
# Like-named read-outs stand apart in the source and are kept apart here.
# How the values were obtained:
# Format in all cases: in vivo
# [1] = tested on: Fusarium; conditions: wheat, 100 EC, 67 days after application
# [2] = tested on: Gibberella zeae; conditions: winter wheat kernels after harvest, Germany 2015; 75 g a.i./ha, 100 EC formulation plus adjuvant, BBCH 65; HPLC-MS/MS; Untreated Control 497
# [3] = tested on: Fusarium head blight; conditions: wheat field trials France and Germany 2016; for Fusarium head blight in % sev. after 11 to 20 days after application: UTC 13; for Fusarium head blight in % sev. after 21 to 46 days after application: UTC 35
compound,measurement,setting,value
"CON(C(=O)c1cn(C)nc1C(F)F)C(C)Cc1c(Cl)cc(Cl)cc1Cl (stereo not shown) [Pydiflumetofen, 3-(Difluoromethyl)-N-methoxy-1-methyl-N-[1-(2,4,6-trichlorophenyl)-2-propanyl]-1H-pyrazole-4-carboxamide]",3- Acetyl Deoxynivalenol,"[1]; France, second trial (UTC 189), 45 g a.i./ha",63 ppb
same,3- Acetyl Deoxynivalenol,"[1]; France, second trial (UTC 189), 60 g a.i./ha",<50 ppb
same,Nivalenol,"[1]; Germany, first trial (UTC 126), 45 g a.i./ha",0 ppb
same,Nivalenol,"[1]; Germany, first trial (UTC 126), 60 g a.i./ha",0 ppb
same,3- Acetyl Deoxynivalenol,"[1]; Germany, second trial (UTC 56), 45 g a.i./ha",0 ppb
same,3- Acetyl Deoxynivalenol,"[1]; Germany, second trial (UTC 56), 60 g a.i./ha",0 ppb
same,Nivalenol,"[1]; Germany, second trial (UTC 159), 45 g a.i./ha",0 ppb
same,Nivalenol,"[1]; Germany, second trial (UTC 159), 60 g a.i./ha",0 ppb
same,Deoxynivalenol Content,[2],44 ppm
same,Fusarium head blight in % sev. after 11 to 20 days after application,[3]; 45 g a.i./ha,42 % sev.
same,Fusarium head blight in % sev. after 21 to 46 days after application,[3]; 45 g a.i./ha,51 % sev.
same,Fusarium head blight in % sev. after 11 to 20 days after application,[3]; 60 g a.i./ha,52 % sev.
same,Fusarium head blight in % sev. after 21 to 46 days after application,[3]; 60 g a.i./ha,64 % sev.
